Assay results published in ChEMBL document CHEMBL5726657, “Substituted pyrrolo[3,4-e]indolizines, imidazo[1,2-a]pyrrolo[3,4-e]pyridines, pyrrolo[3,4-e][1,2,4]triazolo[1,5-a]pyridines and pyrrolo[3,4-e][1,2,4]triazolo[4,3-a]pyridines as positive allosteric modulators of muscarinic acetylcholine receptor M1” (2019).
pEC50: −log10 of the molar value.

Target: T1, Muscarinic acetylcholine receptor M1 (Homo sapiens, UniProt P11229)
T1 sequence (P11229 whole entry): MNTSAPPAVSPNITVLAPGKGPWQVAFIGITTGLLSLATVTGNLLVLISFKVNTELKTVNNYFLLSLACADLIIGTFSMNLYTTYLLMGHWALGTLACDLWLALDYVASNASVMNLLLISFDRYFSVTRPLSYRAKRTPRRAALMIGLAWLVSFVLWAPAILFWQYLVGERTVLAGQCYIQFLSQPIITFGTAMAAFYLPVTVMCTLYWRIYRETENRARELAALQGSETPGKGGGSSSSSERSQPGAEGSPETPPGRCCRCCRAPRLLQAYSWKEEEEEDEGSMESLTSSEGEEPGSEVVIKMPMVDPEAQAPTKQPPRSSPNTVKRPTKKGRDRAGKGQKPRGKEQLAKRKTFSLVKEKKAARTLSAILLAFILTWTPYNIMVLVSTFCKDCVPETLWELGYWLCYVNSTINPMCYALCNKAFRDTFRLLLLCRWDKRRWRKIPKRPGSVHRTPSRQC
Experiment: Cell-Based Functional Assay of Muscarinic Acetylcholine Receptor: For high throughput measurement of agonist-evoked increases in intracellular calcium, CHO-K1 cells stably expressing muscarinic receptors were plated in growth medium lacking G418 and hygromycin at 15,000 cells/20 μL/well in Greiner 384-well black-walled, tissue culture (TC)-treated, clear-bottom plates (VWR). Cells were incubated overnight at 37° C. and 5% CO2. The next day, cells were washed using an ELX 405 (BioTek) with four washes (80 μL) of assay buffer then aspirated to 20 μL. Next, 20 μL of 16 μM Fluo-4/acetoxymethyl ester (Invitrogen, Carlsbad, Calif.) prepared as a 2.3 mM stock in DMSO and mixed in a 1:1 ratio with 10% (w/v) Pluronic F-127 and diluted in assay buffer was added to the wells and the cell plates were incubated for 50 min at 37° C. and 5% CO2. Dye was removed by washing with the ELX 405 (four 80 μL washes of assay buffer) then aspirated to 20 μL. Compound master plates were formatted in an 11 point CRC format (1:3 dilutions) in 100% DMSO with a starting concentration of 10 mM using the BRAVO liquid handler (Agilent). […]

Cn1cc2cc(-c3cc(F)c(CN4Cc5ccc6nccn6c5C4=O)c(F)c3)ccc2n1
pEC50: 5.00
